Measured values published in patent US20130115622A1, “PHARMACEUTICAL COMPOSITION FOR PREVENTION AND TREATMENT OF AMYOTROPHIC LATERAL SCLEROSIS” (KYOTO UNIVERSITY, priority 2009, published 2013).
Where a name gives a salt, the structure may show the parent alone.

Tested on: SOD1
Assay: Analysis of SOD1 in iPS cell-derived astrocytes (Western blotting)
Type: cell-based, human
Conditions: astrocytes differentiated from ALS patient iPS cells (SOD1 L106V); 5 nM, 50 nM, 500 nM and 5 μM; 48 hours incubation; Western blotting vs vehicle 0.5% DMSO
Protocol: The iPS cell-derived astrocytes were seeded to a 6-well plate at a density of 250,000 cells/well. After a vehicle [0.5% dimethylsulfoxide (DMSO)], cycloheximide at a final concentration of 5 μg/ml, and Atorvastatin Calcium Salt (Toronto Research Chemicals Inc.) at various final concentrations (5 nM, 50 nM, 500 nM and 5 μM) were added, the plate was incubated for 48 hours. Subsequently, the cells were recovered, and lysed using a 20 mM Hepes, pH 7.4, containing 1% triton X-100, 10% glycerol, 5 mM EDTA, 120 mM NaCl and protease inhibitor cocktail (Complete; Roche), on ice for 30 minutes. The cell lysate was centrifuged at 15,000 rpm, 4° C. for 30 minutes, and the supernatant was recovered. Western blotting was performed using this cytolysis supernatant. Specifically, 20 μg aliquot of the protein was separated by SDS-PAGE (4-12% polyacrylamide gels), transferred to a PVDF membrane, and incubated with an anti-SOD1 antibody (1:2000 dilution) (Stressgen Company) or an anti-β-actin antibody (1:5000 dilution) (Sigma-Aldrich Company). After the incubation, the amount expressed was detected by ECL (Enhanced ChemiLuminescence) using an HRP-linked anti-rabbit IgG antibody (1:5000; GE healthcare) and an HRP-linked anti-mouse IgG antibody (1:5000; GE healthcare). […] Meanwhile, when the vehicle DMSO alone was added to the human iPS cell 253G4 described by Nakagawa M et al. in Nat. Biotechnol. […]

SMILES: CC(C)c1c(C(=O)Nc2ccccc2)c(-c2ccccc2)c(-c2ccc(F)cc2)n1CC[C@H](O)C[C@@H](O)CC(=O)O [Atorvastatin Calcium Salt, (3R,5S)-7-[2-(4-fluorophenyl)-5-(1-methylethyl)-3-phenyl-4-phenylaminocarbonyl-1H-pyrrol-1-yl]-3,5-dihydroxyheptanoic acid]
- expression of SOD1 (amount of SOD1 protein): a reduction in the expression of SOD1 was observed
